Here are results for 2 compounds from ChEMBL document CHEMBL5653615 (J Biol Chem, 2013).

In experiment [1] the target is Calcium/calmodulin-dependent protein kinase type II subunit gamma (Homo sapiens) (UniProt Q13555). In words: Inhibition of human CAMK2g at 1.82 nM by HotSpot assay relative to control.
The target of experiment [2] is T1, Phosphorylase b kinase gamma catalytic chain, liver/testis isoform (Homo sapiens) (UniProt P15735).
T1 sequence (whole entry): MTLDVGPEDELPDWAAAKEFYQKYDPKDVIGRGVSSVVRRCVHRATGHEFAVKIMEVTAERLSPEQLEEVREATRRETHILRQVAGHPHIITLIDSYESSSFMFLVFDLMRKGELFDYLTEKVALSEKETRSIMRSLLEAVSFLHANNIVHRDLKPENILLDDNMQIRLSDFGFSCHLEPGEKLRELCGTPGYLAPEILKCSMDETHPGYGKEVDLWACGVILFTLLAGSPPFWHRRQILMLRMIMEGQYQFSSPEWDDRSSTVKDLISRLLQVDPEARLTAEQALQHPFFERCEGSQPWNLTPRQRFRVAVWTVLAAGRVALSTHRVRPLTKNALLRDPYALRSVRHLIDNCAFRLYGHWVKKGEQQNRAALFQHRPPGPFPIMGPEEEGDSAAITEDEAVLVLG
Briefly: Inhibition of human PHKg2 at 1.82 nM by HotSpot assay relative to control.

Experiment [3] addresses T2, Serine/threonine-protein kinase Nek9 (Homo sapiens) (UniProt Q8TD19).
T2 sequence (whole entry): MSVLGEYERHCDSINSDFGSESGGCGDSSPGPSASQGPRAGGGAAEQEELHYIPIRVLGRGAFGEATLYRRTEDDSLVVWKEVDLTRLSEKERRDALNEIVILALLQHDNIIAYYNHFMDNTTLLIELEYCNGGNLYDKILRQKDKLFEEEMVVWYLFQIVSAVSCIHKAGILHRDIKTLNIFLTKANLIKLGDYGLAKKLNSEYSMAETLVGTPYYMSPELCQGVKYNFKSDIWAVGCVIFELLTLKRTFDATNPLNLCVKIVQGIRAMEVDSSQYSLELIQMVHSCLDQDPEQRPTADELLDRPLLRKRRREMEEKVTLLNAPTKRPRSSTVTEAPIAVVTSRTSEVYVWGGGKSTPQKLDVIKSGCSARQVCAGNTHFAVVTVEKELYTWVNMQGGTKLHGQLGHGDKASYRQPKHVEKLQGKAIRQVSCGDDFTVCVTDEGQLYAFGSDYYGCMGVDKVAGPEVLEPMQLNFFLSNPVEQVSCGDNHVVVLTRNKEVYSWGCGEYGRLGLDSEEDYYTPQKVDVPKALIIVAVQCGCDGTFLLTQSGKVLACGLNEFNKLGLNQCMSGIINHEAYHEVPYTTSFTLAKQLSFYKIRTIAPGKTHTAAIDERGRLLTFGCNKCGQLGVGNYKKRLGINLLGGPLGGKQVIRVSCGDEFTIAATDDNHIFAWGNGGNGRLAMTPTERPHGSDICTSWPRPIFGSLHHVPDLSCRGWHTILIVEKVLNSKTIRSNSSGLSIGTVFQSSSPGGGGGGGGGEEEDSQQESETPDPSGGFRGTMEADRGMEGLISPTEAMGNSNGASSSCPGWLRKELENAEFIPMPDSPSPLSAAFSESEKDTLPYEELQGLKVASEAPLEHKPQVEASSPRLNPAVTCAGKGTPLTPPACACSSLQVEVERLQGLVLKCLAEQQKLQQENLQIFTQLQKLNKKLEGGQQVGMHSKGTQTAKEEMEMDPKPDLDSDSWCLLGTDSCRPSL
In words: Inhibition of human NEK9 at 1.82 nM by HotSpot assay relative to control.

The target in experiment [4] is Death-associated protein kinase 1 (Homo sapiens) (UniProt P53355). Briefly: Inhibition of human DAPK1 at 1.82 nM by HotSpot assay relative to control.
For experiment [5], the target named is Calcium/calmodulin-dependent protein kinase type 1 (Homo sapiens) (UniProt Q14012). In words: Inhibition of human CAMK1a at 1.82 nM by HotSpot assay relative to control.
Experiment [6] has as its target T3, Calcium/calmodulin-dependent protein kinase type IV (Homo sapiens) (UniProt Q16566).
T3 sequence (whole entry): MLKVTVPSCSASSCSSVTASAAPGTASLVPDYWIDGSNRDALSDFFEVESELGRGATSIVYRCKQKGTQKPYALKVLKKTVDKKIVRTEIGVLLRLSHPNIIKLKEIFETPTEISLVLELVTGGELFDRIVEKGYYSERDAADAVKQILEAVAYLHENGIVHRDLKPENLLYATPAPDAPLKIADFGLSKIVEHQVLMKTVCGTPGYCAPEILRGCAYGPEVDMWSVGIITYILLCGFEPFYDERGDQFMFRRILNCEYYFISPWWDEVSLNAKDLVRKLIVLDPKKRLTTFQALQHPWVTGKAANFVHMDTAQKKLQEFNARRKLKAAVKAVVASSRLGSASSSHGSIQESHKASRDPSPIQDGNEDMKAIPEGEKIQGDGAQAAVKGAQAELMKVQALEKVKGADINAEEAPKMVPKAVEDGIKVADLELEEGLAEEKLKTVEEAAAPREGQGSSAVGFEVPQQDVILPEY
Briefly: Inhibition of human CAMK4 at 18.6 nM by HotSpot assay relative to control.

The target of experiment [7] is Calcium/calmodulin-dependent protein kinase type 1G (Homo sapiens) (UniProt Q96NX5). Briefly: Inhibition of human CAMK1g at 18.6 nM by HotSpot assay relative to control.
Sequence of Calcium/calmodulin-dependent protein kinase type 1G (Homo sapiens) (Q96NX5 whole entry): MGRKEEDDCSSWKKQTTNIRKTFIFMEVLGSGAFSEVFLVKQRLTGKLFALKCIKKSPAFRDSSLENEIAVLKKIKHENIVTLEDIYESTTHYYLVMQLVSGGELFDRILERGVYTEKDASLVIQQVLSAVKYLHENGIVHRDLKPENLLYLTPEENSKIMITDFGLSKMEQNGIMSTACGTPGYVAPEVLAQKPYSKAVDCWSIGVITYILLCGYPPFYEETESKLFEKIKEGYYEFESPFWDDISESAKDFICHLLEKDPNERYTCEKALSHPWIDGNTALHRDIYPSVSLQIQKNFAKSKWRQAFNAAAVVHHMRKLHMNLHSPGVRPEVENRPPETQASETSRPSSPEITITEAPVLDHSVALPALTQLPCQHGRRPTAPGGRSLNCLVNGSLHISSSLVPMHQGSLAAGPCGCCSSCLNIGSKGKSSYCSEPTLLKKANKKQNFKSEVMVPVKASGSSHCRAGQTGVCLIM

Sequence of Calcium/calmodulin-dependent protein kinase type II subunit gamma (Homo sapiens) (Q13555 whole entry, canonical isoform): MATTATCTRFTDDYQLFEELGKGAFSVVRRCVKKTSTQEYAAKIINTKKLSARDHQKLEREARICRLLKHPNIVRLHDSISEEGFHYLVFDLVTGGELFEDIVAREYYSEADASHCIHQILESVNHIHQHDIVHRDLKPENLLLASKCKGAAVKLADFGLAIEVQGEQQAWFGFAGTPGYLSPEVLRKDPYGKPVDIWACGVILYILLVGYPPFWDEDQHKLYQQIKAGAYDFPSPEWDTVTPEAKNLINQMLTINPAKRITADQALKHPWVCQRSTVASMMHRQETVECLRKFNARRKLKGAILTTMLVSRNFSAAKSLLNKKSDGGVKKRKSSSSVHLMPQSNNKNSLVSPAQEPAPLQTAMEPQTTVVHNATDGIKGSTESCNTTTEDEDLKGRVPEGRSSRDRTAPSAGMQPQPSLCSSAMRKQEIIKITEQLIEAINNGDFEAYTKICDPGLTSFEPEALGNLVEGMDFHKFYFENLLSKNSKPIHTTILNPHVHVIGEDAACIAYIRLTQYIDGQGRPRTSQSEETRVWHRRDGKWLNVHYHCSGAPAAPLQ
Sequence of Calcium/calmodulin-dependent protein kinase type 1 (Homo sapiens) (Q14012 whole entry, looked up): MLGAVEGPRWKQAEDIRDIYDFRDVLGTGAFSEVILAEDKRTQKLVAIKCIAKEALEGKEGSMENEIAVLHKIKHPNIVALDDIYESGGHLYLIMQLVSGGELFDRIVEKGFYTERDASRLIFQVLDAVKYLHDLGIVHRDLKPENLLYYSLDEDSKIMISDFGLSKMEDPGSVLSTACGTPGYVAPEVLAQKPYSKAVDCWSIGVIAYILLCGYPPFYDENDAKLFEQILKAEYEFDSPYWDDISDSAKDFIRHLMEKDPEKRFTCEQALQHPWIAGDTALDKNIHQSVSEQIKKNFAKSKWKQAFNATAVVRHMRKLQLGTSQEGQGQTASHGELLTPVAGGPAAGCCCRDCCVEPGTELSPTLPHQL
Sequence of Death-associated protein kinase 1 (Homo sapiens) (P53355 whole entry, looked up): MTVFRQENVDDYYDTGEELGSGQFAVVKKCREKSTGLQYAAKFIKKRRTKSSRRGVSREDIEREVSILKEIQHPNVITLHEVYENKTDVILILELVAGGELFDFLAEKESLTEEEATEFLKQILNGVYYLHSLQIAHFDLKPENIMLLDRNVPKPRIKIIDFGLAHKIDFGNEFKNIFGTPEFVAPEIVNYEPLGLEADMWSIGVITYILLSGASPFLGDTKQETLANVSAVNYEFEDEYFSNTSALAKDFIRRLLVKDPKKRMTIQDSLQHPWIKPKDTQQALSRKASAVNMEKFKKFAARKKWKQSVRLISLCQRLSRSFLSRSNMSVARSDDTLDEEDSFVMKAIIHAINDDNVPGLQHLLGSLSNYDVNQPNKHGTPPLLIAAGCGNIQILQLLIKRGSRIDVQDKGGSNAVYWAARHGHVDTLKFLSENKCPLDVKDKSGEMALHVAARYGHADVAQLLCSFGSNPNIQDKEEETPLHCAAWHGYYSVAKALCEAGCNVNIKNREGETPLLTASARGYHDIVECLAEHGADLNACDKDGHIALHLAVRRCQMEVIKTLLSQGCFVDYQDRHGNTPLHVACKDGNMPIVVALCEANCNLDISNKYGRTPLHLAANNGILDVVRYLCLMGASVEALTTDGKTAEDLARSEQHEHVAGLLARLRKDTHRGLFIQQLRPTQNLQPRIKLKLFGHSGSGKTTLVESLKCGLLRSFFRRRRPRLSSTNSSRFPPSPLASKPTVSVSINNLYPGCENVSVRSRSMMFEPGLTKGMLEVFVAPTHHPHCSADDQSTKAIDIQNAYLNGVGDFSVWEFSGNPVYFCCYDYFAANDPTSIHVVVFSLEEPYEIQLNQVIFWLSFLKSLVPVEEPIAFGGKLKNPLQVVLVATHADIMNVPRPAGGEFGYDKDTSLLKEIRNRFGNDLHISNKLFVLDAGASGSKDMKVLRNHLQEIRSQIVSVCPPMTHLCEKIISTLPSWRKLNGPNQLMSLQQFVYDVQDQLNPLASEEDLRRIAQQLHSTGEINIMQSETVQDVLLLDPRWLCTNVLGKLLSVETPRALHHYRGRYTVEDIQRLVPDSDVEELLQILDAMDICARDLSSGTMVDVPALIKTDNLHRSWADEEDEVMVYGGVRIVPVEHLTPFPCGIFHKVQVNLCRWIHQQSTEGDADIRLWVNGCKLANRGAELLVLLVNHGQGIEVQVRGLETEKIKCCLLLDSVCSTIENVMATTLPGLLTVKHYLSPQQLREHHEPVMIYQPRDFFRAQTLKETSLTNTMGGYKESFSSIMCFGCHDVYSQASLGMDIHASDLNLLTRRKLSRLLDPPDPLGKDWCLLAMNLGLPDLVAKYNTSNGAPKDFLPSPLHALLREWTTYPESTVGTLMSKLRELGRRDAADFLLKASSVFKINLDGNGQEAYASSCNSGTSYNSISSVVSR

A word on the inhibition: it is the drop in the measured response relative to a control, in per cent. Regarding `C[C@@]1(C(=O)Nc2ccc(F)nc2)CCCN1c1nc(Nc2cc(C3CC3)n[nH]2)c2cccn2n1`, the inhibition in experiment [1] was 4.1%; in experiment [2], -4.64%; in experiment [3], -1.18%; in experiment [4], 3.56%; in experiment [5] it was 2.2%.
On to `C[C@]1(O)C[C@@H](c2nc(-c3ccc4ccc(-c5ccccc5)nc4c3)c3c(N)nccn32)C1`, for which the results for the inhibition in experiment [6] and in experiment [7] were 4.07% and 6.69%, respectively.
